This is an account of results in patent US20120238105A1, “FORMULATIONS FOR THE PRODUCTION OF ELECTRONIC DEVICES” (Merck Patent GmbH, priority 2009, published 2012).

The structures appear in SMILES notation.

The nature of the series: solubility of matrix compounds for producing devices from solution. The format is physicochemical. To be noted: compounds dissolved in toluene or chlorobenzene for spin coating of the emission layer (matrix with 5% by weight emitter). On the procedure:
Materials according to the invention are used from solution, where they result in simple devices having nevertheless good properties. The production of such components is based on the production of polymeric light-emitting diodes (PLEDs), which has already been described many times in the literature (for example in WO 2004/037887 A2). In the present case, the compounds according to the invention are dissolved in toluene or chlorobenzene. The concentration employed in the examples given here is 20% by weight of the emitter (T-1 or compound 18) and 80% by weight of the matrix materials (compounds 5 to 17). The typical solids content of such solutions is between 16 and 25 g/l if, as here, the typical layer thickness of 80 nm for a device is to be achieved by means of spin coating.
The concentration employed in the examples given here is 5% by weight of the emitter (SEB-095, Merck) and 95% by weight of the matrix materials (compounds 28 and 29). The typical solids content of such solutions is […] if, as here, the typical layer thickness of 50 nm for a device is to be achieved by means of spin coating.
Take `c1ccc(-c2c3ccccc3c(-c3cccc4c3ccc3cc5ccccc5cc34)c3ccccc23)cc1` [Compound 25]: the solubility entry was “poor solubility”.
As for `c1ccc(-c2cccc(-c3c4ccccc4c(-c4cccc5c4ccc4cc6ccccc6cc45)c4ccccc34)c2)cc1` [Compound 27], the solubility result is given as “poor solubility”.
For the compound `c1ccc(-c2cc(-c3ccccc3)cc(-c3c4ccccc4c(-c4cccc5c4ccc4cc6ccccc6cc45)c4ccccc34)c2)cc1` [Compound 28], the solubility result is “improved solubility”.
For `c1ccc(-c2cc(-c3ccccc3)cc(-c3cccc(-c4c5ccccc5c(-c5cccc6c5ccc5cc7ccccc7cc56)c5ccccc45)c3)c2)cc1` [Compound 29] the value was “improved solubility”.
